The values that follow come from US11015179B2, “Peptide having anti-viral effect and composition containing same” (priority 2015, dated 2021).

In one experiment the test system is JFH-1 cells. As to the kind of experiment: Intracellular ROS production (DCF-DA) in JFH-1 cells. It is filed as cell-based, human. To be noted: for ROS production: 2 hours, PEP1 0.001-10 μM, NAC, PDTC 100 μM, vitamin E 10 μM, vs vehicle. As for the experimental part: One day after 5×10^4 (cells/well) cells of the JFH-1 cell line were seeded into a 24-well plate, intracellular ROS production was measured according to various experimental materials. Measurement of intracellular activity was carried out by staining the cells with dichlorodihydrofluoresein diacetate (DCF-DA; Invitrogen), and fluorescence measurement of ROS production was carried out at […] using Infinte M2000 Tecan (Tecan Trading AG, Switzerland). All fluorescent units were expressed as arbitrary units, and as a positive control group, hydrogen peroxide (H2O2, 2 mM) was used. ROS measurement for the Huh7.5 cells was also carried out by the same procedure as described above.
As a control group, a human HCC cell line, and Huh7.5 and JFH-1 cell lines were treated with known representative antioxidants such as NAC (2 Mm), PDTC (100 μM), and vitamin E (10 μM) and then compared.
The inventors inhibited the interaction with HSP90 by two methods: a use of antibodies against […] and antibodies against HSP90 or a use of an inhibitor occupying a catalytic position (ATP-binding pocket in the N-terminal of HSP90).

Experiment [1] concerns HIV-1. As to conditions: ACH-2 cells, RT-qPCR, stepwise increasing concentrations. In general terms: Quantitative PCR measures a nucleic acid by following its amplification.
Method: That is, ACH-2 cells, that is, cells latently-infected with HIV-1, were stimulated with PMA (50 nM) to induce reactivation of HIV-1 for 1 hour. […] A production level of viral particles in the supernatant was determined by p24 ELISA.
The levels of viral genomic RNA of the produced viral particles were determined by RT-qPCR.
In the next experiment the test system is NF-κB. As to the kind of experiment: NF-κB dual-luciferase assay in MT-4 cells. It counts as cell-based, human. As to conditions: 24 hours. From the text:
NF-κB triggers HIV transcription by interacting with an NF-κB-binding site in HIV-LTR, and increases the activation of TAT-mediated LTR […]. In addition, Tat can directly activate NF-κB. Recently, there have been studies showing that eHSP90 can regulate various intracellular signaling pathways, including the NF-κB pathway.

Experiment [2] deals with HIV-1-infected MT-4 cells. As to the kind of experiment: Cell protective effect from HIV-1-induced cell death in MT-4 cells. To be noted: 5 days. It counts as cell-based, human. As for the experimental part:
MT-4, 1G5 or ACH-2 cells were seeded in a 96-well microplate at a density of 1×10^4 cells/well, and incubated with increasing concentrations of PEP1 for 5 days. Cell viability was determined by colorimetry using a CellTiter96 Aqueous One Solution assay kit (Promega, Wis.) according to the manufacturer's instructions. To assess the cell protective effect of PEP1 from HIV-1-induced cell death, MT-4 cells (1×10^4) were infected with the HIV-1 virus (4×10^5 CCID50) for 5 days with or without PEP1, and subjected to a cell viability assay.
It has been known that apoptosis of HIV-infected cells occurs by an intracellular cell death mechanism.

The subject of experiment [3] is HIV-1. As to conditions: MT-4 cells. As for the experimental part:
The MT-4 cells (4×10^5 cells) were infected with HIV-1 (4×10^5 50% cell culture infective dose (CCID50)) for one hour. […] After two days of incubation, images of the MT-4 cells expressing eGFP were obtained using a fluorescence microscope before harvesting the cells. To remove cell debris, the collected supernatant was subjected to centrifugation at 13,000 rpm for 3 minutes, and to measure an extracellular viral amount, p24 ELISA or RNA extraction was performed for a reverse transcription-quantitative polymerase chain reaction (RT-qPCR). Meanwhile, the cell pellets were washed with D-PBS twice, and used for a cell viability assay. […] HIV-1 replication was analyzed by p24 ELISA, and eGFP was monitored using a fluorescent microscope.
To measure HIV-1 virus titers, HIV-1 p24 antigen capture ELISA (p24 ELISA, ABL) and RT-qPCT assay were performed according to the manufacturer's instructions. HIV-1 RNA genomes were purified from the cell culture supernatants and pellets using a QIAamp Ultrasens Virus kit (Qiagen, Hilden, Germany) according to the manufacturer's instructions. The HIV-1 RNA levels were quantified by RT-qPCR using a primer pair specific to gag of HIV-1. Glyceraldehyde phosphate dehydrogenase (GAPDH) was used as a reference gene for normalization. […]

The subject of experiment [4] is HIV-1 Tat transactivation. In words: HIV-LTR-luciferase assay in 1G5 cells transfected with Tat plasmids. As to conditions: four days. It counts as cell-based. As for the experimental part:
An HIV-1 transactivation protein (Tat) is a regulatory protein dramatically enhancing HIV-1 transcription through the interaction with the tat-transcriptional active region (TAR). […] In the present invention, as a Jurkat-derived cell line, 1G5 containing a stably-inserted HIV-LTR-luciferase construct was used.
The 1G5 cells were transfected with Tat plasmids. […] Four days after the infection, the transactivation of HIV-LTR was analyzed through a luciferase assay.

In the next experiment the test system is HCV. As to the kind of experiment: Quantitative PCR of HCV NS2 transcript in JFH-1 cells. It counts as cell-based, Hepatitis C virus (HCV2a JFH-1). To be noted: 48 hours, vs vehicle, PEP1 until 10 μM, NAC 20 mM, PDTC 100 μM, vitamin E 10 μM. As for the experimental part: A cell line used in the example relating to the HCV antiviral effect of PEP1 according to an aspect of the present invention, such as, human hepatocellular carcinoma (Huh7.5) was purchased from the American Type Culture Collection (ATCC; Manassas, Va., USA), and a JFH-1 cell line was constructed using HCV2a JFH-1 clones provided from Dr. Wakita (Tokyo Metropolitan Institute for Neuroscience, Tokyo, Japan) in the Huh7.5 cell line. All of the cell lines were cultured in a Dulbecco's modified Eagle's medium (DMEM) containing 10% FBS and 1% antibiotics.
A HCV RNA level was detected though quantitative PCR using primers for a NS2 gene. To measure the level of HCV RNA in the supernatant of cell culture, RNA was extracted from 100 μl of the cell culture using a QIAamp Viral RNA Mini kit (Qiagen). The extracted RNA was used in cDNA synthesis using a transcript first strand cDNA synthesis supermix kit (Roche Applied Science). PCR was carried out using a 1×SYBR Green mix (Qiagen). For real-time PCR, an NS2 forward primer 5′-[…]-3′ (SEQ ID NO: 3) and a reverse primer 5′-[…]-3′ (SEQ ID NO: 4) were purchased from Bioneer Co. For quantitative PCR, a 7900HT Fast real-time PCR system (Applied Biosystems, Foster City, Calif., USA) was used.
According to the methods described in the experiments and the analysis methods, to investigate whether PEP1 inhibits the replication of one HCV RNA such as NS2, the transcript of NS2 was measured.

Experiment [5] relates to HSP90 (extracellular HSP90, eHSP90). In words: Extracellular HSP90 detection by ELISA in JFH-1 culture supernatant. As to conditions: JFH-1 cells, PDTC 100 μM, 2 hours, vs control. It counts as cell-based, human. As for the experimental part:
The Huh7.5 and JFH-1 cell lines were treated with an oxidant (H2O2, 2 mM) and an antioxidant, PDTC (100 μM), for two hours. HSP90 (extracellular HSP90, eHSP90) in the supernatant of a culture was detected by ELISA (R&D Systems, Minneapolis, Minn., USA) according to the manufacturer's instructions.
A general note: ELISA stands for enzyme-linked immunosorbent assay.

Experiment [6] concerns HIV-1. To be noted: characteristics of control anti-HIV drugs stated as well known; cited from earlier work.
In the next experiment the test system is p38, JNK and ERK. As to the kind of experiment: Immunoblotting of MAPK signaling factors in JFH-1 cells. To be noted: 2 hours, vitamin E 10 μM. It counts as cell-based, human. As for the experimental part: Proteins were acquired from cells using a lysis solution (Cell Signaling Technology, Danvers, Mass., USA) containing a proteinase inhibitors cocktail (Roche, Basel, Switzerland) and a phosphatase inhibitor (Roche). To remove debris, which remained after cell lysis, the cells were centrifuged for 10 minutes at 4° C. 50 μg of the proteins were analyzed through 12% sodium dodecyl sulfate-polyacrylamide gel electrophoresis (SDS-PAGE), and then transferred to a polyvinylidene difluoride membrane (PVDF; Millipore, Bedford, Mass., USA). The transferred membrane was developed using an ImageQuant™ LAS 4000 mini biomolecular imager (GE Healthcare Bio-Sciences AB, Sweden), after antibodies against HSP90, p38, p-p38 (Thr180/Tyr182), JNK, p-JNK (Thr183/Tyr185), ERK, p-ERK (Thr202/Tyr204), and zinc-copper containing enzyme SOD (CuZn-SOD) and manganese-SOD (Mn-SOD) as superoxide dismutase oxidases (SODs), and GAPDH (all of them were purchased from Cell Signaling Technology and Santa Cruz Biotechnology) were attached to the membrane and then visualized by a SuperSignal West Pico chemiluminescence substrate (Pierce, Rockford, USA). β-actin was used for normalization using a Multi Gauge V 3.0 (Fuji Film, Japan), and quantitative analysis was carried out by densitometry. […]
In general terms: A western blot detects proteins with antibodies after separation by electrophoresis.

For `C=CCNC1=C2C[C@@H](C)C[C@H](OC)[C@H](O)[C@@H](C)/C=C(\C)[C@H](OC(N)=O)[C@@H](OC)/C=C\C=C(/C)C(=O)NC(=CC1=O)C2=O` [17AAG, 17-N-Allylamino-17-demethoxy geldanamycin], in the experiment on JFH-1 cells (17AAG 1 μM, KNK 10 μM), the “Change in ROS caused by HSP inhibitor” value is recorded as “the ROS inhibitory effect was exhibited”.

`Cc1cn([C@H]2C[C@H](N=[N+]=[N-])[C@@H](CO)O2)c(=O)[nH]c1=O` [AZT, 3-azido-3-deoxythymidine]: the “Viral genomic RNA of produced viral particles after PMA” value in the experiment on HIV-1 [1] is “did not change the PMA effect”. Besides, the “NF-κB activity in HIV-1-infected MT-4 cells” value in the experiment with NF-κB is listed as “medium level of inhibitory effect”. For the same compound, in the experiment on NF-κB (MT-4 cells), the “Basal NF-κB activity” value is reported as “no significant effect”. The Cell protective effect entry in [2] is recorded as “considerable cell protective effects in a dose-dependent manner”. In addition, in the experiment on HIV-1 [3] (fluorescence / immunoblotting), the “Inhibition of eGFP expression after anti-HSP90 antibodies” value is reported as “an effect of AZT was not obtained”. In addition, the “Inhibition of HIV-1 production after anti-HSP90 neutralization antibodies” value in the experiment with HIV-1 [3] (p24 ELISA) was “no influence”. Further, in experiment [4], the “HIV-LTR luciferase activity activated by ectopic expression of Tat” value is recorded as “did not inhibit”.

In the case of `CC(=O)N[C@@H](CS)C(=O)O` [NAC, N-acetylcysteine], in the experiment on HCV, the “NS2 transcription (HCV RNA replication)” value is “do not inhibit the NS2 transcription at all”. For the same compound, in the experiment on JFH-1 cells, the ROS production result is listed as “induced a decrease in ROS production”.

`S=C(S)N1CCCC1` [PDTC, pyrolidine dithiocarbamate]: the “NS2 transcription (HCV RNA replication)” value in the experiment with HCV was “do not inhibit the NS2 transcription at all”. In addition, the eHSP90 level result in experiment [5] is given as “produced at a lower level than the control group”. For the same compound, the ROS production result in the experiment with JFH-1 cells was “induced a decrease in ROS production”. Also, in the experiment with JFH-1 cells (PDTC), the “ROS production in the presence of KNK and 17AAG” value is “inhibits ROS production in the presence of both of KNK and 17AAG”; the “ROS production with HSP70/HSP90 blocking antibodies” value was “inhibits ROS production regardless of blocking of HSP70 and HSP90”.

As for `CC(C)c1nc(CN(C)C(=O)N[C@H](C(=O)N[C@@H](Cc2ccccc2)C[C@H](O)[C@H](Cc2ccccc2)NC(=O)OCc2cncs2)C(C)C)cs1` [Ritonavir], the “Time of treatment at which the control drug inhibits HIV proliferation” value in the experiment on HIV-1 [6] is reported as “up to 15 hours”.

vitamin E: the “NS2 transcription (HCV RNA replication)” value with HCV is “do not inhibit the NS2 transcription at all”. The ROS production entry with JFH-1 cells is given as “induced a decrease in ROS production”. For the same compound, the ERK activity result in the experiment on p38, JNK and ERK was “increased”.
